Laboratory results taken from patent publication US6881741B2 (ViroChem Pharma Inc., priority 2001, dated 2005).

target: recombinant HCV NS5B (HCV RNA-dependent RNA polymerase) (Hepatitis C virus genotype 1b, UniProt P26663); assay: biochemical; settings: HCV polymerase activity, list of compounds of Example 27; read-out: IC50 (polymerase activity)
Sequence (P26663 2420-3010 limits assumed): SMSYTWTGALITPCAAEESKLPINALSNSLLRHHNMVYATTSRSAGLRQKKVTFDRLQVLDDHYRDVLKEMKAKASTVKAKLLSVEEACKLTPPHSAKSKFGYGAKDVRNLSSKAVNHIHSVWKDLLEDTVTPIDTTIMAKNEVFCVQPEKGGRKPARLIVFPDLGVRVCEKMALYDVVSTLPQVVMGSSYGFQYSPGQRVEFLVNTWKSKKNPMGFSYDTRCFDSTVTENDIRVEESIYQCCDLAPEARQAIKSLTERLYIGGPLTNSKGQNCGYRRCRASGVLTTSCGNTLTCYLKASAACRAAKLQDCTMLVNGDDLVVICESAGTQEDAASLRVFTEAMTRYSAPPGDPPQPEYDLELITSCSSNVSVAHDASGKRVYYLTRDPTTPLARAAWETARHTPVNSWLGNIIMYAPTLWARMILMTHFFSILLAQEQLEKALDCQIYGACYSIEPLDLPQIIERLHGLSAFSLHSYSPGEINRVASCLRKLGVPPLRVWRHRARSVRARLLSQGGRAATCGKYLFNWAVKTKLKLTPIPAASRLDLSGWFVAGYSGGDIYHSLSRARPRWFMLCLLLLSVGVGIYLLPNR

Row | Structure (SMILES) | IC50 [µM]
1 | C=CCN(C(=O)CC1CCCC1)c1cc(-c2ccccc2)sc1C(=O)O [Compound 401, 3-[ALLYL-(2-CYCLOPENTYL-ACETYL)- AMINO]-5-PHENYL-THIOPHENE-2- CARBOXYLIC ACID] | < 5
2 | CC(C)CC(=O)N(Cc1ccccc1)c1cc(-c2ccccc2)sc1C(=O)O [Compound 453, 3-[BENZYL-(3-METHYL-BUTYRYL)- AMINO]-5-PHENYL-THIOPHENE-2- CARBOXYLIC ACID] | < 5
3 | COCC(=O)N(Cc1cccc(Cl)c1)c1cc(-c2ccccc2)sc1C(=O)O [Compound 478, 3-[(3-CHLORO-BENZYL)-(2-METHOXY- ACETYL)-AMINO]-5-PHENYL-THIOPHENE- 2-CARBOXYLIC ACID] | > 20
4 | CC(C)C(=O)N(Cc1ccc(C(C)(C)C)cc1)c1cc(-c2ccccc2)sc1C(=O)O [Compound 437, 3-[(4-TERT-BUTYL-BENZYL)- ISOBUTYRYL-AMINO]-5-PHENYL- THIOPHENE-2-CARBOXYLIC ACID] | 5 to 20
5 | CC(C)(C)c1ccc(CN(C(=O)CC2CCCC2)c2cc(-c3ccccc3)sc2C(=O)O)cc1 [Compound 442, 3-[(4-TERT-BUTYL-BENZYL)-(2- CYCLOPENTYL-ACETYL)-AMINO]-5- PHENYL-THIOPHENE-2-CARBOXYLIC ACID] | < 5
6 | CCCC(=O)N(Cc1ccc(C(C)(C)C)cc1)c1cc(-c2ccccc2)sc1C(=O)O [Compound 440, 3-[(4-TERT-BUTYL-BENZYL)-BUTYRYL- AMINO]-5-PHENYL-THIOPHENE-2- CARBOXYLIC ACID] | 5 to 20
7 | CCCC(=O)N(Cc1ccccc1C)c1cc(-c2ccccc2)sc1C(=O)O [Compound 433, 3-[BUTYRYL-(2-METHYL-BENZYL)- AMINO]-5-PHENYL-THIOPHENE-2- CARBOXYLIC ACID] | 5 to 20
8 | CC(COCc1ccccc1)N(C(=O)c1ccc(Cl)cc1Cl)c1cc(-c2ccccc2)sc1C(=O)O (stereo not shown) [Compound 516, 3-[(2-BENZYLOXY-1-METHYL-ETHYL)- (2,4-DICHLORO-BENZOYL)-AMINO]-5- PHENYL-THIOPHENE-2-CARBOXYLIC ACID] | < 5
9 | CC1CCC(C(=O)N(c2cc(-c3ccc(C#N)cc3)sc2C(=O)O)C(C)C)CC1 (stereo not shown) [Compound 576, 5-(4-CYANO-PHENYL-3-[ISOPROPYL-(4- METHYL-CYCLOHEXANECARBONYL)- AMINO]-THIOPHENE-2-CARBOXYLIC ACID] | < 5
10 | CC1CCC(C(=O)N(c2cc(C3=CCN(C(=O)OCc4ccccc4)CC3)sc2C(=O)O)C(C)C)CC1 (stereo not shown) [Compound 524, 4-{5-CARBOXY-4-[ISOPROPYL-(4- METHYL-CYCLOHEXANECARBONYL)- AMINO]-THIOPHEN-2-YL}-3,6-DIHYDRO- 2#H!-PYRIDINE-1-CARBOXYLIC ACID BENZYL ESTER] | < 5
11 | Cc1ccc(CN(C(=O)C2CCC2)c2cc(-c3ccccc3)sc2C(=O)O)cc1 [Compound 435, 3-[CYCLOBUTANECARBONYL-(4- METHYL-BENZYL)-AMINO]-5-PHENYL- THIOPHENE-2-CARBOXYLIC ACID] | < 5
12 | CC1CN(C(=O)OCc2ccccc2)CCC1N(C(=O)c1ccc(Cl)cc1Cl)c1cc(-c2ccccc2)sc1C(=O)O (stereo not shown) [Compound 533, 4-[(2-CARBOXY-5-PHENYL-THIOPHEN-3- YL)-(2,4-DICHLORO-BENZOYL)-AMINO]-3- METHYL- PIPERIDINE-1-CARBOXYLIC ACID BENZYL ESTER] | < 5
13 | O=C(O)c1sc(-c2ccccc2)cc1N(Cc1ccc(F)cc1F)C(=O)C1CCCCC1 [Compound 490, 3-[CYCLOHEXANECARBONYL-(2,4- DIFLUORO-BENZYL)-AMINO]-5-PHENYL- THIOPHENE-2-CARBOXYLIC ACID] | < 5

same assay, conditions: related polymerase activity (Example 27 list); read-out: IC50

Row | Structure (SMILES) | IC50 [µM]
14 | Cc1ccccc1S(=O)(=O)Nc1cc(-c2ccc(NS(C)(=O)=O)cc2)sc1C(=O)O [Compound 369, 5-(4-METHANESULFONYLAMINO- PHENYL)-3- (TOLUENE-2-SULFONYLAMINO)- THIOPHENE- 2-CARBOXYLIC ACID] | 5 to 20
15 | Cc1ccccc1S(=O)(=O)Nc1cc(-c2ccc(OC(F)(F)F)cc2)sc1C(=O)O [Compound 60, 3-(TOLUENE-2-SULFONYLAMINO)-5-(4-TRIFLUOROMETHOXY-PHENYL)-THIOPHENE-2-CARBOXYLIC ACID] | < 5
16 | Cc1cccc(-c2cc(NS(=O)(=O)c3ccccc3C)c(C(=O)O)s2)c1 [Compound 64, 3-(TOLUENE-2-SULFONYLAMINO)-5-M-TOLYL-THIOPHENE-2-CARBOXYLIC ACID] | < 5
17 | CN(C(=O)Cc1ccccc1)c1cc(-c2ccccc2)sc1C(=O)O [Compound 175, 3-(METHYL-PHENYLACETYL-AMINO)-5-PHENYL-THIOPHENE-2-CARBOXYLIC ACID] | < 5
18 | Cc1ccc(C(=O)N(C)c2cc(-c3ccc([N+](=O)[O-])cc3)sc2C(=O)O)cc1 [Compound 194, 3-[METHYL-(4-METHYL-BENZOYL)-AMINO]-5-(4-NITRO-PHENYL)-THIOPHENE-2-CARBOXYLIC ACID] | 5 to 20
19 | O=C(O)c1sc(-c2ccccc2)cc1NS(=O)(=O)c1ccc([N+](=O)[O-])cc1 [Compound 148, 3-(4-NITRO-BENZENESULFONYLAMINO)-5-PHENYL-THIOPHENE-2-CARBOXYLIC ACID] | 5 to 20
20 | Cc1ccc(C(=O)N(c2cc(-c3ccccc3)sc2C(=O)O)C2CCN(C(=O)OC(C)(C)C)CC2)cc1 [Compound 364, 4-[(2-CARBOXY-5-PHENYL-THIOPHEN-3- YL)-(4-METHYL-BENZOYL)-AMINO]- PIPERIDINE-1-CARBOXYLIC ACID #TERT!-BUTYL ESTER] | < 5
21 | Cc1ccccc1S(=O)(=O)Nc1cc(-c2cnn(S(=O)(=O)N(C)C)c2)sc1C(=O)O [Compound 163, 5-(1-DIMETHYLSULFAMOYL-1H-PYRAZOL-4-YL)-3-(TOLUENE-2-SULFONYLAMINO)-THIOPHENE-2-CARBOXYLIC ACID] | 5 to 20
22 | Cc1ccccc1S(=O)(=O)Nc1cc(-c2ccc(Cl)cn2)sc1C(=O)O [Compound 191, 5-(5-CHLORO-PYRIDIN-2-YL)-3-(TOLUENE-2-SULFONYLAMINO)-THIOPHENE-2-CARBOXYLIC ACID] | < 5
23 | Cc1ccccc1S(=O)(=O)Nc1cc(-c2cccc(C#N)c2)sc1C(=O)O [Compound 117, 5-(3-CYANO-PHENYL)-3-(TOLUENE-2-SULFONYLAMINO)-THIOPHENE-2-CARBOXYLIC ACID] | < 5
24 | Cc1ccccc1S(=O)(=O)Nc1cc(-c2ccc([N+](=O)[O-])cc2)sc1C(=O)O [Compound 59, 5-(4-NITRO-PHENYL)-3-(TOLUENE-2-SULFONYLAMINO)-THIOPHENE-2-CARBOXYLIC ACID] | < 5
25 | Cc1ccccc1S(=O)(=O)Nc1cc(CCc2ccccc2)sc1C(=O)O [Compound 120, 5-PHENETHYL-3-(TOLUENE-2-SULFONYLAMINO)-THIOPHENE-2-CARBOXYLIC ACID] | 5 to 20
26 | O=C(O)c1sc(-c2ccccc2)cc1NS(=O)(=O)c1ccccc1 [Compound 17, 3-BENZENESULFONYLAMINO-5-PHENYL-THIOPHENE-2-CARBOXYLIC ACID] | 5 to 20
27 | Cc1ccc(-c2cc(NS(=O)(=O)c3cc(C)ccc3C)c(C(=O)O)s2)cc1 [Compound 118, 3-(2,5-DIMETHYL-BENZENESULFONYLAMINO)-5-P-TOLYL-THIOPHENE-2-CARBOXYLIC ACID] | < 5
28 | CC(C)N(C(=O)c1ccc(Cl)cc1Cl)c1cc(-c2cccc(C(F)(F)F)c2)sc1C(=O)O [Compound 359, 3-[(2,4-DICHLORO-BENZOYL)- ISOPROPYL-AMINO]-5-(3- TRIFLUOROMETHYL-PHENYL)- THIOPHENE-2-CARBOXYLIC ACID] | < 5
29 | O=C(O)c1sc(-c2ccccc2)cc1NS(=O)(=O)c1cc(F)ccc1F [Compound 53, 3-(2,5-DIFLUORO-BENZENESULFONYLAMINO)-5-PHENYL-THIOPHENE-2-CARBOXYLIC ACID] | < 5
30 | Cc1ccc(C(=O)N(C)c2cc(-c3ccccc3)sc2C(=O)O)c(F)c1F [Compound 280, 3-[(2,3-DIFLUORO-4-METHYL-BENZOYL)-METHYL-AMINO]-5-PHENYL-THIOPHENE-2-CARBOXYLIC ACID] | < 5
31 | CC(=O)c1ccc(-c2cc(NS(=O)(=O)c3ccc(C)cc3)c(C(=O)O)s2)cc1 [Compound 237, 5-(4-ACETYL-PHENYL)-3-(TOLUENE-4-SULFONYLAMINO)-THIOPHENE-2-CARBOXYLIC ACID] | < 5
32 | CC(C)N(C(=O)c1ccc(Cl)cc1Br)c1cc(-c2ccccc2)sc1C(=O)O [Compound 306, 3-[(2-BROMO-4-CHLORO-BENZOYL)- ISOPROPYL-AMINO]-5-PHENYL- THIOPHENE-2-CARBOXYLIC ACID] | < 5
33 | Cc1cc(F)ccc1S(=O)(=O)Nc1cc(-c2ccccc2)sc1C(=O)O [Compound 370, 3-(4-FLUORO-2-METHYL- BENZENESULFONYLAMINO)-5-PHENYL- THIOPHENE-2-CARBOXYLIC ACID] | 5 to 20
34 | Cc1ccccc1S(=O)(=O)Nc1cc(-c2ccc(F)cc2)sc1C(=O)O [Compound 66, 5-(4-FLUORO-PHENYL)-3-(TOLUENE-2-SULFONYLAMINO)-THIOPHENE-2-CARBOXYLIC ACID] | < 5
35 | O=C(Nc1cc(-c2ccccc2)sc1C(=O)O)c1ccc(Cl)cc1 [Compound 72, 3-(4-CHLORO-BENZOYLAMINO)-5-PHENYL-THIOPHENE-2-CARBOXYLIC ACID] | 5 to 20
36 | COc1cc(C)ccc1C(=O)N(C)c1cc(-c2ccccc2)sc1C(=O)O [Compound 205, 3-[(2-METHOXY-4-METHYL-BENZOYL)-METHYL-AMINO]-5-PHENYL-THIOPHENE-2-CARBOXYLIC ACID] | 5 to 20
37 | N#Cc1ccccc1S(=O)(=O)Nc1cc(-c2ccccc2)sc1C(=O)O [Compound 54, 3-(2-CYANO-BENZENESULFONYLAMINO)-5-PHENYL-THIOPHENE-2-CARBOXYLIC ACID] | < 5
38 | CN(C(=O)c1ccc(Cl)cc1Br)c1cc(-c2ccccc2)sc1C(=O)O [Compound 284, 3-[(2-BROMO-4-CHLORO-BENZOYL)-METHYL-AMINO]-5-PHENYL-THIOPHENE-2-CARBOXYLIC ACID] | < 5
39 | Cc1ccc(C(=O)N(Cc2ccc([N+](=O)[O-])cc2)c2cc(-c3ccccc3)sc2C(=O)O)cc1 [Compound 342, 3-[(4-METHYL-BENZOYL)-(4-NITRO- BENZYL)-AMINO]-5-PHENYL-THIOPHENE- 2-CARBOXYLIC ACID] | < 5
40 | O=C(O)c1sc(-c2ccccc2)cc1NS(=O)(=O)c1ccc(-c2csnn2)s1 [Compound 46, 5-PHENYL-3-(5-[1,2,3]THIADIAZOL-4-YL-THIOPHENE-2-SULFONYLAMINO)-THIOPHENE-2-CARBOXYLIC ACID] | 5 to 20
